{
  "source": "paper PMC12481569",
  "about": "“Novltex: A New Class of Antibiotics with Potent Activity against Multidrug-Resistant Bacterial Pathogens–Design, Synthesis, and Biological Evaluation” (Journal of Medicinal Chemistry, 2025)",
  "key": {"MRSA DM21455": {"test_system": "MRSA DM21455", "assay": "Cytoplasmic membrane potential DiSC3(5) assay", "type": "cell-based, Staphylococcus aureus", "settings": "1× to 16× MIC, 1 h, room temperature, ex 622/em 670 nm; pronounced at 4× MIC", "protocol": "To determine whether the bactericidal activity of analogue 12 is linked to bacterial membrane perturbations, we performed a DiSC3(5) assay, which utilizes a membrane-potential-sensitive dye to assess cytoplasmic membrane depolarization of MRSA. […]\nday, cells were treated in triplicates with increasing concentrations of Novltex analogue 12, as indicated in the corresponding figure and the figure legend (Figure 4A-C). Cells were treated with 1 µM Staurosporine (MedChemExpress #HY-15141) as a positive kill control. Cell viability assessed after 24 h or 48 h incubation using an MTS-based CellTiter 96® AQueous One Solution Cell Proliferation Assay (Promega #G3582, Southampton UK) as per manufacturer’s instructions. Absorbance was recorded at 490 nm. Relative cell viability was determined by subtracting the blank (cell culture medium and MTS only) from individual values before normalizing against the untreated control.\nAnonymized human blood samples were received from the Health Sciences Authority, Singapore and used as per the institutional guidelines and approved by the Institutional Review Board (IRB -2023-1019) of Nanyang Technological University Singapore. […] The supernatant was transferred to a new 96-well microplate and the absorbance was measured at 576 nm in the Infinite M200 monochromator microplate reader (Tecan Group Ltd., Switzerland). […]"}, "MRSA ATCC 33591": {"test_system": "MRSA ATCC 33591", "assay": "Time-kill kinetics", "type": "cell-based, Staphylococcus aureus", "settings": "2.5 μg/mL (10× MIC), MHB with 0.002% polysorbate 80, 37 °C, two independent experiments in duplicate", "protocol": "Early-stage time-kill kinetics for analogue 12 against MRSA ATCC 33591 were performed using vancomycin as a control, following the protocol described in Section VIII, Supporting Information.\n3 Time-kill kinetics of Novltex analogue 12 and clinical antibiotic (vancomycin) against MRSA 33591. […] Results are the mean ± SD of two independent experiments performed in duplicate.\nMICs were performed as previously reported 4. For MIC testing all peptides were dissolved in DMSO.\nBacterial cultures were grown overnight on Mueller-Hinton Agar (MHA) plates and adjusted to a final inoculum of 10^5 – 10^6 CFU/mL. 100 µl of ino culum in Meuller -Hinton broth (MHB) was mixed with equal volume of peptides (dissolved in MHB) at 2x their concentration in a 96 well plate . For daptomycin MIC determination, the same protocol was followed with the addition of 50 mg/L calcium chloride to the medium. MIC values were determined in the media contain ing polysorbate 80 (0.002%, v/v) to prevent non -specific adsorption of the peptides to plastic surfaces. The final peptides concentrations ranged from 0.0625 – 32 µg/mL. The 96 well plates were then incubated at 37 °C for 24 h. All the experiments were performed in two independent duplicates and the MIC was determined as the lowest concentration in which no visible growth was observed.\nAntibiotics MIC break points ( µg/mL)\nTable. […]"}},
  "note": "Positions of bridges follow the written chain, without caps; N, C: chain ends. Non-standard residues stand in square brackets, D forms with d. Residues, ends and D or L forms follow the SMILES beside them. dCha = N[C@H](CC1CCCCC1)C(=O)O",
  "data": [
    {"smiles": "CC(C)C[C@@H]1NC(=O)[C@H](C)NC(=O)[C@H](NC(=O)[C@H](CO)NC(=O)[C@@H](CCCCN)NC(=O)[C@@H](CC2CCCCC2)NC(=O)[C@@H](N)Cc2ccccc2)[C@H](C)OC(=O)[C@H](CC(C)C)NC1=O", "note": "[analogue 12, Leu2Cha–Novltex] (H-F[dCha][dK]S[dT]ALL; ester 5-C)", "values": [
      {"measurement": "change in DiSC3(5) fluorescence intensity (membrane depolarization)", "setting": "MRSA DM21455", "result": "substantial increase in fluorescence intensity"},
      {"measurement": "time to significant bacterial killing", "setting": "MRSA ATCC 33591", "result": "≤ 6", "unit": "h"}
    ]}
  ]
}
